Drawing on patent US12264170B2, “Antimicrobial organosilanes” (TOPIKOS SCIENTIFIC, INC., priority 2019, dated 2025), this text covers MIC for 1 compound.

In test [1] the test system is Staphylococcus aureus ATCC 33591. Description: MIC microdilution assay. Format: cell-based. The settings on record: Staphylococcus aureus, ATCC33591; S. aureus ATCC 33591; CAMHB; 35±2° C. 18 to 20 hours; two values given; read-out: MIC. How it is done:
(§1) Strain numbers starting with “ATCC” were acquired from the American Type Culture Collection (Manassas, VA), while strain numbers starting with “CDC” were acquired from the Centers for Disease Control and Prevention (Atlanta, GA). All strains were maintained as −80° C. frozen glycerol stocks. S. aureus and P. aeruginosa were grown overnight on Tryptic Soy Agar (TSA) plates at 35±2° C., ambient atmosphere, while S. pyogenes was grown overnight on TSA+5% defibrinated sheep blood at 35±2° C., 5% CO2. All fungal species (i.e. C. albicans, C. auris and C. herbarum) were grown on Sabouraud Dextrose Agar (SDA) plates. C. herbarum was grown at 25±2° C. for 5 to 7 days, while all other fungal strains were grown at 35±2° C. overnight.
(§2) Test articles Compound 2 (batch #2G13A0.368) and Compound 23 (batch #2G17A0.372) were received and stored at 4° C. The antibiotic Tobramycin and antifungal Amphotericin B were used as quality control (QC) compounds for the MIC assay. Stock solutions of 3.2 mg/mL Tobramycin (Sigma-Aldrich, cat #T1783-500MG) and 3.2 mg/mL Amphotericin B (CP Lab Chemicals, cat #TOK-A007-1G) were prepared in sterile ultrapure water.
(§3) For bacteria strains, a few colonies of each strain were collected with a sterile swab and used to make a McFarland 0.5 standard solution (approximately 1×10^8 CFU/mL) in sterile PBS. The McFarland was then diluted 1:180 in Cation Adjusted Muller-Hinton Broth (CAMHB) for S. aureus and P. aeruginosa, and in […]+5% defibrinated sheep blood for S. pyogenes. 90 μL of this inoculum was combined with 10 μL of the 10× test article in a 96-well plate for a final concentration of 1×.
(§4) All bacterial-strain MIC 96-well plates were incubated at 35±2° C. for 18 to 20 hours, while all Candida MIC 96-well plates were incubated at 35±2° C. for 24 to 48 hours. C. herbarum MIC 96-well plates were incubated at 25±2° C. for 3 to 5 days, until growth was visible in the growth control wells. After incubation, the 96-well plates were examined visually and on a spectrophotometer at absorbance OD650. […]

Test [2] relates to Campylobacter jejuni CDC 0413. Description: MIC microdilution assay (Example 32). Format: cell-based. The settings on record: Campylobacter jejuni, CDC0413; C. jejuni CDC 0413; CAMHB+5% laked horse blood; 35±2° C. 48 hours, microaerophilic; two values given; read-out: MIC. How it is done:
(§5) Strain IDs starting with “ATCC” were acquired from the American Type Culture Collection (Manassas, VA), strain IDs starting with “Eurofins” were acquired from Eurofins (Herndon, VA), while strain IDs starting with “CDC” were acquired from the Centers for Disease Control and Prevention (Atlanta, GA). All strains were maintained as −80° C. frozen glycerol stocks. S. aureus and P. aeruginosa were grown overnight on Tryptic Soy Agar (TSA) plates at 35±2° C., ambient atmosphere, while S. pyogenes was grown overnight on TSA+5% defibrinated sheep blood at 35±2° C., 5% CO2. C. jejuni was grown for 48 hours on TSA+5% defibrinated sheep blood at 35±2° C., in a microaerophilic environment generated by CampyGen sachet. All fungal species (i.e. C. albicans and C. auris) were grown overnight on Sabouraud Dextrose Agar (SDA) plates at 35±2° C., ambient atmosphere.
(§6) Test article Compound 1 (batch #7G30A9.203) was stored at 4° C. The antibiotic Tobramycin and antifungal Amphotericin B were used as quality control (QC) compounds for the MIC assay. Stock solutions of 3.2 mg/mL Tobramycin (Sigma-Aldrich, cat #T1783-500MG) and 3.2 mg/mL Amphotericin B (CP Lab Chemicals, cat #TOK-A007-1G) were prepared in sterile ultrapure water.
(§7) For bacteria strains, a few colonies of each strain were collected with a sterile swab and used to make a McFarland 0.5 standard solution (approximately 1×10^8 CFU/mL) in sterile PBS. The McFarland was then diluted 1:180 in Cation Adjusted Muller-Hinton Broth (CAMHB) for S. aureus and P. aeruginosa. S. pyogenes McFarland was diluted 1:180 in CAMHB+5% defibrinated sheep blood, while C. jejuni McFarland was diluted 1:180 in CAMHB+5% laked horse blood. 90 μL of this inoculum was combined with 10 μL of the 10× test article in a 96-well plate for a final concentration of 1×.
(§8) Except for C. jejuni, all bacterial-strain MIC 96-well plates were incubated at 35±2° C. for 18 to 20 hours, ambient atmosphere. C. jejuni was incubated at 35±2° C. for 48 hours, under microaerophilic condition. All Candida MIC 96-well plates were incubated at 35±2° C. for 24 to 48 hours, ambient atmosphere, until growth in control wells were observed. After incubation, the 96-well plates were examined visually and on a spectrophotometer at absorbance OD650. MIC is defined as the lowest concentration of a compound in which no visible growth is observed.
In general terms: Broth dilution looks for growth in wells or tubes with falling amounts of substance.

Test [3] concerns Streptococcus pyogenes Eurofins 2065755. Description: MIC microdilution assay (Example 32). Format: cell-based. Particulars: Streptococcus pyogenes; S. pyogenes Eurofins 2065755; CAMHB+5% defibrinated sheep blood; 35±2° C. 18 to 20 hours; two values given; read-out: MIC. How it is done: as §5, §6, §7, §8
The test system of test [4] is Pseudomonas aeruginosa CDC 0248. The test can be described thus: MIC microdilution assay (Example 32). Format: cell-based. Particulars: Pseudomonas aeruginosa, CDC0248; P. aeruginosa CDC 0248; CAMHB; 35±2° C. 18 to 20 hours; two values given; read-out: MIC. As for the experimental part:
as §5, §6, §7, §8

A further test deals with P. aeruginosa ATCC 27853. The test can be described thus: MIC microdilution assay. The settings on record: Pseudomonas aeruginosa, ATCC27853, CAMHB, 35±2° C. 18 to 20 hours, two values given, read-out: MIC. Format: cell-based, Pseudomonas aeruginosa. As for the experimental part: as §1, §2, §3, §4
The next test has as its system Candida auris CDC 0385. The test can be described thus: MIC microdilution assay (Example 32). Format: cell-based. Particulars: Candidozyma auris, CDC0385; C. auris CDC 0385; RPMI media; 35±2° C. 24 to 48 hours; two values given; read-out: MIC. As for the experimental part:
as §5, §6, §7
(§9) For the yeasts C. albicans and C. auris, a McFarland 0.5 standard solution in sterile PBS was similarly prepared (approximately 1×10^6 CFU/mL) and was subsequently diluted 1:180 in RPMI 1640 media buffered with 0.165 M MOPS at pH 7.0 (herein referred to as “RPMI media”). 90 μL of the Candida inoculum was combined with 10 μL of the 10× test article in a 96-well plate for a final concentration of 1×.
as §8

Test [5] deals with Candida albicans ATCC 90028. Description: MIC microdilution assay (Example 32). The settings on record: Candida albicans, ATCC90028; C. albicans ATCC 90028 (quality control); RPMI media; 35±2° C. 24 to 48 hours; two values given; read-out: MIC. Format: cell-based. As for the experimental part:
as §5, §6, §7, §9, §8

Values after ≈ are worked out from the molar mass of the structure shown.

For the compound `NC[C@H]1O[C@H](O[C@H]2[C@H](O)[C@@H](O[C@H]3O[C@H](CO)[C@@H](O)[C@H](N)[C@H]3O)[C@H](N)C[C@@H]2N)[C@H](N)C[C@@H]1O` [Tobramycin], the MIC in test [1] was over 32 µg/mL; in test [2] it was over 32 µg/mL; in test [3], 16 µg/mL (≈ 34.2 µM); in test [4] it was over 32 µg/mL; in the test on P. aeruginosa ATCC 27853 it was 0.25 µg/mL (≈ 0.535 µM); with Candida auris CDC 0385, over 32 µg/mL. Also, the MIC in test [5] was over 32 µg/mL.

One may read the MIC as the least concentration at which growth counts as inhibited.
